From ChEMBL document CHEMBL1201862, “PubChem BioAssay data set” (2004)
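The compound was tested at five concentrations on cells cultured in 96-well plates, with a 48-hour exposure period. GI50 marks 50% less growth.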 Active and inactive are the calls of the source. No stated cut-off is given here; in the data, active = GI50 up to about 1.1 µM and inactive = higher.

Tests used:
Experiment in all cases: NCI tumour cell line growth inhibition, 48 h
SF-268 = system: SF-268
SK-MEL-5 = system: SK-MEL-5
CAKI-1 = system: CAKI-1
EKVX = system: EKVX
OVCAR-3 = system: OVCAR-3
Malme-3M = system: Malme-3M
SNB-19 = system: SNB-19
TK-10 = system: TK-10
SW-620 = system: SW-620
KM12 = system: KM12
HCT-15 = system: HCT-15
NCI-H460 = system: NCI-H460
A498 = system: A498
SF-295 = system: SF-295
UACC-257 = system: UACC-257
IGROV-1 = system: IGROV-1
SK-OV-3 = system: SK-OV-3
HOP-92 = system: HOP-92
MDA-N = system: MDA-N

| Structure (SMILES) | GI50 (SF-268) | GI50 (SK-MEL-5) | GI50 (CAKI-1) | GI50 (EKVX) | GI50 (OVCAR-3) | GI50 (Malme-3M) | GI50 (SNB-19) | GI50 (TK-10) | GI50 (SW-620) | GI50 (KM12) | GI50 (HCT-15) | GI50 (NCI-H460) | GI50 (A498) | GI50 (SF-295) | GI50 (UACC-257) | GI50 (IGROV-1) | GI50 (SK-OV-3) | GI50 (HOP-92) | GI50 (MDA-N) |
| --- | --- | --- | --- | --- | --- | --- | --- | --- | --- | --- | --- | --- | --- | --- | --- | --- | --- | --- | --- |
| S=C1c2ccccc2N=C(NC2CCCC2)C2CSCN12 (configuration not stated) | 49.2 µM (inactive) | 49.2 µM (inactive) | > 100 µM (inactive) | 37.2 µM (inactive) | 97.1 µM (inactive) | > 100 µM (inactive) | > 100 µM (inactive) | > 100 µM (inactive) | > 100 µM (inactive) | 20.4 µM (inactive) | > 100 µM | 61.1 µM (inactive) | 88.9 µM (inactive) | > 100 µM (inactive) | 51.5 µM (inactive) | > 100 µM (inactive) | > 100 µM (inactive) | – | – |
| Cc1cc(C)nc(SCC(=O)OC2CC(C)CCC2C(C)C)n1 (configuration not stated) | 37 µM (inactive) | 15.2 µM (inactive) | 20.3 µM (inactive) | 17.9 µM (inactive) | 14.3 µM (inactive) | 21.6 µM (inactive) | 18.7 µM (inactive) | 34.3 µM (inactive) | 19.9 µM (inactive) | 20.1 µM (inactive) | 15.6 µM | 18.8 µM (inactive) | 18.1 µM (inactive) | 14.6 µM (inactive) | 19.6 µM (inactive) | 20.6 µM (inactive) | 23.9 µM (inactive) | 26 µM (inactive) | – |
| OCC1OC(OCC(O)C(O)C(O)C(/C=N/Nc2ccccc2)=N/Nc2ccccc2)C(O)C(O)C1O (configuration not stated) | 26 µM (inactive) | > 100 µM (inactive) | 34.4 µM (inactive) | > 100 µM (inactive) | > 100 µM (inactive) | 85.5 µM (inactive) | > 100 µM (inactive) | > 100 µM (inactive) | > 100 µM (inactive) | > 100 µM (inactive) | > 100 µM | 30.9 µM (inactive) | – | 78.9 µM (inactive) | > 100 µM (inactive) | 5.19 µM (inactive) | > 100 µM (inactive) | 34.8 µM (inactive) | > 100 µM (inactive) |
| CCN(CC)S(=O)(=O)c1ccc2[nH]c(NC(=O)OC)nc2c1 | 99.3 µM (inactive) | 98.9 µM (inactive) | > 100 µM (inactive) | > 100 µM (inactive) | 80.9 µM (inactive) | > 100 µM (inactive) | 70.5 µM (inactive) | 6.47 µM (inactive) | 33.7 µM (inactive) | 36.9 µM (inactive) | 47.2 µM | 49.2 µM (inactive) | – | 85.7 µM (inactive) | 8.02 µM (inactive) | 32.4 µM (inactive) | > 100 µM (inactive) | 30.1 µM (inactive) | 18.5 µM (inactive) |
| COc1nc(N)c(C#N)c(C#N)c1C#N | > 10 µM (inactive) | > 10 µM (inactive) | > 10 µM (inactive) | – | > 10 µM (inactive) | > 10 µM (inactive) | > 10 µM (inactive) | > 10 µM (inactive) | > 10 µM (inactive) | > 10 µM (inactive) | > 10 µM | – | – | > 10 µM (inactive) | > 10 µM (inactive) | – | > 10 µM (inactive) | > 10 µM (inactive) | > 10 µM (inactive) |
| NC(=S)NS(=O)(=O)c1ccc(Cl)cc1Cl | > 100 µM (inactive) | > 100 µM (inactive) | > 100 µM (inactive) | > 100 µM (inactive) | > 100 µM (inactive) | > 100 µM (inactive) | > 100 µM (inactive) | > 100 µM (inactive) | > 100 µM (inactive) | > 100 µM (inactive) | > 100 µM | > 100 µM (inactive) | – | > 100 µM (inactive) | > 100 µM (inactive) | > 100 µM (inactive) | > 100 µM (inactive) | > 100 µM (inactive) | > 100 µM (inactive) |
| COC1=CC2C(c3cc4ccccc4n3S(=O)(=O)c3ccccc3)CC1CN2C(=O)OCc1ccccc1 (configuration not stated) | – | 25.6 µM (inactive) | 35.2 µM (inactive) | 18.9 µM (inactive) | 19.5 µM (inactive) | 19.8 µM (inactive) | – | 67.1 µM (inactive) | 37.6 µM (inactive) | 26.9 µM (inactive) | 31.1 µM | 29.5 µM (inactive) | – | 25 µM (inactive) | 34.8 µM (inactive) | 33.7 µM (inactive) | 28.8 µM (inactive) | – | 34.5 µM (inactive) |
| CCOc1cc(C2CC(c3ccc(NS(=O)(=O)c4cc([N+](=O)[O-])ccc4C)cc3)=NN2c2ccc([N+](=O)[O-])cc2[N+](=O)[O-])ccc1O (configuration not stated) | 11.1 µM (inactive) | 10.4 µM (inactive) | 16.9 µM (inactive) | 4.71 µM (inactive) | 11.4 µM (inactive) | 8.57 µM (inactive) | 7.46 µM (inactive) | 15.7 µM (inactive) | 21.8 µM (inactive) | 11 µM (inactive) | 19.3 µM | – | – | 12.1 µM (inactive) | 19.1 µM (inactive) | 12.5 µM (inactive) | 3.43 µM (inactive) | 10.4 µM (inactive) | 12.2 µM (inactive) |
| COC(=O)C(CC12CC3CC(CC(C3)C1)C2)NC(=O)C(N)CC(=O)O (configuration not stated) | > 100 µM (inactive) | > 100 µM (inactive) | > 100 µM (inactive) | > 100 µM (inactive) | – | – | > 100 µM (inactive) | > 100 µM (inactive) | > 100 µM (inactive) | > 100 µM (inactive) | > 100 µM | > 100 µM (inactive) | – | > 100 µM (inactive) | > 100 µM (inactive) | > 100 µM (inactive) | > 100 µM (inactive) | > 100 µM (inactive) | > 100 µM (inactive) |
| COC(=O)/C=C/N1CC1 | > 10 µM (inactive) | > 10 µM (inactive) | > 10 µM (inactive) | > 10 µM (inactive) | 5.81 µM (inactive) | > 10 µM (inactive) | 8.15 µM (inactive) | 4.09 µM (inactive) | – | > 10 µM (inactive) | > 10 µM | > 10 µM (inactive) | – | > 10 µM (inactive) | > 10 µM (inactive) | 1.45 µM (inactive) | > 10 µM (inactive) | – | – |
| Cc1cc(S(N)(=O)=O)c(S/C(=N\Nc2ccc([N+](=O)[O-])cc2)c2ccc(Cl)cc2)cc1Cl | 2.3 µM (inactive) | 3.48 µM (inactive) | 3.42 µM (inactive) | 6.19 µM (inactive) | 1.74 µM (inactive) | 1.59 µM (inactive) | 3.33 µM (inactive) | 1.79 µM (inactive) | 3.22 µM (inactive) | 1.94 µM (inactive) | 4.3 µM | 2.17 µM (inactive) | 4.32 µM (inactive) | 2.11 µM (inactive) | 2.72 µM (inactive) | 3.44 µM (inactive) | 1.96 µM (inactive) | 2.26 µM (inactive) | – |
| Oc1c(Cl)c(Cl)c(O)c(CCNc2nccs2)c1Cl | 9.06 µM (inactive) | 2.2 µM (inactive) | 11.4 µM (inactive) | 14.3 µM (inactive) | 9.35 µM (inactive) | 27.4 µM (inactive) | 17 µM (inactive) | 11.7 µM (inactive) | 3.3 µM (inactive) | 6.85 µM (inactive) | 13.7 µM | 20.8 µM (inactive) | – | 19.1 µM (inactive) | 20 µM (inactive) | 3.27 µM (inactive) | 16.3 µM (inactive) | 32.4 µM (inactive) | – |
| Cc1ccc(C2SC(=N)Nc3c2c(C)nn3C(=O)c2ccncc2)cc1 (configuration not stated) | > 10 µM (inactive) | > 10 µM (inactive) | > 10 µM (inactive) | – | > 10 µM (inactive) | > 10 µM (inactive) | > 10 µM (inactive) | > 10 µM (inactive) | > 10 µM (inactive) | > 10 µM (inactive) | > 10 µM | > 10 µM (inactive) | – | > 10 µM (inactive) | > 10 µM (inactive) | > 10 µM (inactive) | > 10 µM (inactive) | > 10 µM (inactive) | > 10 µM (inactive) |
| Fc1ccc2c3c([nH]c2c1)CCN(Cc1ccccc1)C3 | 21 µM (inactive) | 22.3 µM (inactive) | – | 20.9 µM (inactive) | – | 18.4 µM (inactive) | 16.6 µM (inactive) | > 10 µM (inactive) | 20.1 µM (inactive) | 15.3 µM (inactive) | 21.1 µM | 17.3 µM (inactive) | 17.8 µM (inactive) | 14.7 µM (inactive) | 15.3 µM (inactive) | 20.7 µM (inactive) | 19.2 µM (inactive) | 5.33 µM (inactive) | – |
| CC(=O)C1=C(C)N(c2ccc(C)cc2)C2(O)C=CC(O)=C3C(=O)c4ccccc4C(=O)C312 (configuration not stated) | 15.9 µM (inactive) | 7.4 µM (inactive) | 13.5 µM (inactive) | 19.3 µM (inactive) | 3.91 µM (inactive) | 1.91 µM (inactive) | 22.6 µM (inactive) | 23.4 µM (inactive) | 4.81 µM (inactive) | 7.41 µM (inactive) | 4.49 µM | 7.23 µM (inactive) | 12.9 µM (inactive) | 13.7 µM (inactive) | 10.6 µM (inactive) | 7.38 µM (inactive) | > 100 µM (inactive) | 55.1 µM (inactive) | – |
| Cc1c(N2CCN(C)CC2)nc2ccc(Cl)cc2c1-c1ccccc1 | 29.4 µM (inactive) | 15.4 µM (inactive) | 17.3 µM (inactive) | 17.7 µM (inactive) | 24.3 µM (inactive) | 16.9 µM (inactive) | 25.2 µM (inactive) | > 10 µM (inactive) | 16.8 µM (inactive) | 12.4 µM (inactive) | 18.9 µM | 17.5 µM (inactive) | 12.2 µM (inactive) | 17.4 µM (inactive) | 17.9 µM (inactive) | – | 47.4 µM (inactive) | – | – |
| c1ccc(CC2COC(c3cccs3)=N2)cc1 (configuration not stated) | > 91 µM (inactive) | 57.7 µM (inactive) | > 100 µM (inactive) | 66.2 µM (inactive) | > 86.5 µM (inactive) | > 100 µM (inactive) | > 70.3 µM (inactive) | > 90.2 µM (inactive) | > 100 µM (inactive) | > 89.3 µM (inactive) | 38.3 µM | > 86.5 µM (inactive) | – | > 86.3 µM (inactive) | > 100 µM (inactive) | > 100 µM (inactive) | > 68.9 µM (inactive) | 21.4 µM (inactive) | > 100 µM (inactive) |
